In ChEMBL document CHEMBL1201862, “PubChem BioAssay data set” (2004):
Activity calls are given as the source filed them.

Assays:
[1] = Luminescence Cell-Based Dose Confirmation HTS to Identify Activators of 5'UTR Stem-Loop Driven Alpha-Synuclein mRNA Translation in H4 Neuroglioblastoma Cells. [Related pubchem assays: 1829 (Project Summary), 1814 (Primary HTS)]; type: functional
[2] = Luminescence Cell-Based Dose Response HTS to Identify Activators of Luciferase Translation or Activity in H4 […] Cells. [Related pubchem assays: 1829 (Project Summary), 1814 (Primary HTS)]; type: functional
[3] = system: H4; test: Luminescence Cell-Based Dose Response HTS to Identify Activators of 5'UTR Stem-Loop Driven Prion Protein mRNA Translation in H4 Neuroglioblastoma Cells. [Related pubchem assays: 1829 (Project Summary), 1814 (Primary HTS)]; type: functional; conditions: Homo sapiens
[4] = THP-1 cell cytotoxicity, dose response, cytotoxicity control for non-replicating M. tuberculosis project (AID 489025); type: functional
[5] = Vero E6 cell cytotoxicity, dose response, cytotoxicity control for non-replicating M. tuberculosis project, secondary assay (AID 492998); type: functional, VeroE6; conditions: Vero C1008
[6] = target: FAD-linked sulfhydryl oxidase ALR (Homo sapiens, UniProt P55789); test: ALR-catalysed DTT oxidation blockers – biochemical, H2O2 detection, luminescence, cherry-pick, dose response (AID 493248)
[7] = cells; type: functional
[8] = target: Heat shock protein HSP 90-alpha (Homo sapiens, UniProt P07900); type: functional, organism-based
[9] = viability loss in HeLa cells – cytotoxicity control for MgcRacGAP inhibitor project, dose response (AID 624300); type: functional
[10] = target: T1, Rac GTPase-activating protein 1 (Homo sapiens, UniProt Q9H0H5); test: blockers of MgcRacGAP-driven Rac1 GTP hydrolysis – biochemical, ADP Hunter fluorescence, primary and confirmatory, confirmation (AID 624330); type: functional
T1 sequence (Q9H0H5 whole entry): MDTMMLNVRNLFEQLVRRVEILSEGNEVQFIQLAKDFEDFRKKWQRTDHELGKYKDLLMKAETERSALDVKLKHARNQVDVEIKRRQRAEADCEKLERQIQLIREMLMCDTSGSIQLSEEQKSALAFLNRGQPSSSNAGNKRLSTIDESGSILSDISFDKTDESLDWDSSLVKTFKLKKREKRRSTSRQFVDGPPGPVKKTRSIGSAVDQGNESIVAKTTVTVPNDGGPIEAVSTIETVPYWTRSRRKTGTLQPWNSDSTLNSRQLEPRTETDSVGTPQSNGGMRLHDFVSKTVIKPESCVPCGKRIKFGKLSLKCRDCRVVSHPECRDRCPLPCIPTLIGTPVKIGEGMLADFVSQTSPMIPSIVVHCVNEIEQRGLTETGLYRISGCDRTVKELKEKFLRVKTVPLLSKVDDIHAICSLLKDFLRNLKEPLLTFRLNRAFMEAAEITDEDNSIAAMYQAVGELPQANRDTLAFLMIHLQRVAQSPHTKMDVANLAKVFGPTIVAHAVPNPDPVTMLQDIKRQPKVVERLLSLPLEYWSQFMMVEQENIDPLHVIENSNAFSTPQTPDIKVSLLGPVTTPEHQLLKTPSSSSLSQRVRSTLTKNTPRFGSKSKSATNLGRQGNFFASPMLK

[11] = A549 cell cytotoxicity, dose response, cytotoxicity control, plate reader, cherry-pick, antagonist series (AID 743412); type: functional, cell-based
[12] = blockers of bursicon-stimulated LGR2 cAMP reporter – cell-based, HEK293, CRE-luciferase reporter, cherry pick, set 2, dose response (AID 743343); type: functional;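 note: transfected cells were stimulated with diluted bursicon conditioned medium after compound addition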
[13] = blockade of melanocortin 4 receptor signaling – cell-based, plate reader, cherry pick, counter-screen for LGR2 antagonist project, dose response (AID 743444); type: functional;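 note: transfected HEK 293 cells stimulated with alpha-MSH peptide; potency of inhibitors of the alpha-MSH evoked signal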
[14] = luciferase reporter signal suppression in cells – H4 neuroglioma cells, luminescence, dose response (AID 1990); type: functional, cell-based
[15] = Luminescence Cell-Based Dose Response HTS to Identify Inhibitors of 5'UTR Stem-Loop Driven Prion Protein mRNA Translation in H4 Neuroglioblastoma Cells. [Related pubchem assays: 1827 (Project Summary), 1813 (Primary HTS)]; type: functional
[16] = alpha-synuclein stem-loop luciferase translation blockers – H4 neuroglioma cells, luminescence, confirmation (AID 1988); type: functional, cell-based
[17] = target: Albumin (Bos taurus, UniProt P02769); test: Counterscreen for inhibitors of T-cell receptor (TCR)-CD3 interaction: Fluorescence-based biochemical high throughput dose response assay to identify inhibitors of T-cell receptor (TCR)-CD3 interaction using a TAMRA-labeled BSA probe.; type: functional
[18] = target: Mitogen-activated protein kinase 10 (Homo sapiens, UniProt P53779); test: Dose response biochemical screening assay for inhibitors of c-Jun N-Terminal Kinase 3 (JNK3). [Related pubchem assays: 746 ]
[19] = target: T2, Leucine aminopeptidase (Plasmodium falciparum 3D7, UniProt Q8IL11); test: P. falciparum M17LAP inhibitors, primary screen, biochemical, fluorogenic H-Leu-NHMec substrate, 1536-well (AID 1619); type: functional
T2 sequence (Q8IL11 whole entry): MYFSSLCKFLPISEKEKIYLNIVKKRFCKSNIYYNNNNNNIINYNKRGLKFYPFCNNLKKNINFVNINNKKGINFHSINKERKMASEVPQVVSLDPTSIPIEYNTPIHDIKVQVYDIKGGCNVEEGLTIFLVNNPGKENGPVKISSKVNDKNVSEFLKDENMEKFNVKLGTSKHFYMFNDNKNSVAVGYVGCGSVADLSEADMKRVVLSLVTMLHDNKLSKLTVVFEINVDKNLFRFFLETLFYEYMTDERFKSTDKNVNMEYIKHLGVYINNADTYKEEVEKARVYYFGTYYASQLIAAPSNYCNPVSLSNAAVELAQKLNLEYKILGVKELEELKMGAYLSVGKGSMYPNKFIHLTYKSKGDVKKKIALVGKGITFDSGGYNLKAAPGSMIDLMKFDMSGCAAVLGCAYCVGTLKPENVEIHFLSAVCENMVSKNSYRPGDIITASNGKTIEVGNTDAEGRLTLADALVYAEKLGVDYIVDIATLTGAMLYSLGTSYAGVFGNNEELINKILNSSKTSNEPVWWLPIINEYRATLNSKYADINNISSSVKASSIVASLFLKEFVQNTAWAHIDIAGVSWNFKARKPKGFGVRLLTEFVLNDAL

[20] = target: T3, Caspase-6 (Homo sapiens, UniProt P55212); test: inhibition of CASP6 peptide cleavage – biochemical, VEID-R110 fluorescence, cherry-pick, dose response (AID 720632)
T3 sequence (P55212 whole entry): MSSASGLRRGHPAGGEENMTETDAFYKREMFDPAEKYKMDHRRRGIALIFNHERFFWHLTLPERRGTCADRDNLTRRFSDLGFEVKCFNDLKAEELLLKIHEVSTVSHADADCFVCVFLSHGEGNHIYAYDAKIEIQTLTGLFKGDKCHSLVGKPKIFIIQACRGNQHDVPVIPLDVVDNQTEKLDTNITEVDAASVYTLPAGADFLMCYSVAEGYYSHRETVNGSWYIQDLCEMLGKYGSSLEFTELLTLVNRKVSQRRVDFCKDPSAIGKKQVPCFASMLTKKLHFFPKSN

[21] = target: T4, Histone-lysine N-methyltransferase NSD2 (Homo sapiens, UniProt O96028); type: biochemical
T4 sequence (O96028 whole entry): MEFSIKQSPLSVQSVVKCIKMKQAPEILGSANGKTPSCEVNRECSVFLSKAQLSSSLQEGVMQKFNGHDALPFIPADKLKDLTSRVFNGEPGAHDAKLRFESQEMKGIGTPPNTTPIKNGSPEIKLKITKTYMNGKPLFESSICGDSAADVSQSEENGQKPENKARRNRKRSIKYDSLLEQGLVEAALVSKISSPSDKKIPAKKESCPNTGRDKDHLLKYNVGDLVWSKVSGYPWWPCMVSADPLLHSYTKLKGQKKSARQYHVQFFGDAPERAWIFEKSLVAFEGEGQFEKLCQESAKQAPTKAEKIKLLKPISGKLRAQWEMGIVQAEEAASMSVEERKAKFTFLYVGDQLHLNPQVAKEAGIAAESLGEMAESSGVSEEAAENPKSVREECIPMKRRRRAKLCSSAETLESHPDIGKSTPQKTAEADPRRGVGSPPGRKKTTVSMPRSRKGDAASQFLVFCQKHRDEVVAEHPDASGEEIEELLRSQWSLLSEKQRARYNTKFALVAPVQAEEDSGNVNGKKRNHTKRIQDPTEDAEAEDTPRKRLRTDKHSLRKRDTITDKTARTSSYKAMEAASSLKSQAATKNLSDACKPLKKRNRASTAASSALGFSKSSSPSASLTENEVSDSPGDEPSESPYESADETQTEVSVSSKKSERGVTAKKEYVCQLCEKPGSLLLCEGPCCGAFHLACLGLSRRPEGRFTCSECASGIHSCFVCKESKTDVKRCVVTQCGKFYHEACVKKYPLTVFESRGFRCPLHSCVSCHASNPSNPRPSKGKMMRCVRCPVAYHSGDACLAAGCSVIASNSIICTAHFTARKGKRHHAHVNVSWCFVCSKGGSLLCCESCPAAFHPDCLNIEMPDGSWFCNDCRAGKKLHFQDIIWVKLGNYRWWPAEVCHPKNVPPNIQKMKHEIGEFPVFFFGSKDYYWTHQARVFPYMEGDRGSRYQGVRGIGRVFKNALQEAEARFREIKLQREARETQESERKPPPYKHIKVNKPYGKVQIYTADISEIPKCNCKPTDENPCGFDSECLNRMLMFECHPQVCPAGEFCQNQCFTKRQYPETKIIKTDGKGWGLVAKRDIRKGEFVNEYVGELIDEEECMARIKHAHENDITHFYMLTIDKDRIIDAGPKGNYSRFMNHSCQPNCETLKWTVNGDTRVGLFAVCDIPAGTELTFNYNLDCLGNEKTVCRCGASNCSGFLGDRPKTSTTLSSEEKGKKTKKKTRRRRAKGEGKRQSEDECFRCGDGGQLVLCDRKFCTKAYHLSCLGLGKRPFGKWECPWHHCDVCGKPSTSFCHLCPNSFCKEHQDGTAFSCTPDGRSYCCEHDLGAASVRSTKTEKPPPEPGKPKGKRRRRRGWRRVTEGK

[22] = target: T5, Tyrosyl-DNA phosphodiesterase 2 (Homo sapiens, UniProt O95551); test: potency against TDP2 phosphodiesterase activity – biochemical, epi absorbance, IC50, dose response (AID 743297)
T5 sequence (O95551 whole entry): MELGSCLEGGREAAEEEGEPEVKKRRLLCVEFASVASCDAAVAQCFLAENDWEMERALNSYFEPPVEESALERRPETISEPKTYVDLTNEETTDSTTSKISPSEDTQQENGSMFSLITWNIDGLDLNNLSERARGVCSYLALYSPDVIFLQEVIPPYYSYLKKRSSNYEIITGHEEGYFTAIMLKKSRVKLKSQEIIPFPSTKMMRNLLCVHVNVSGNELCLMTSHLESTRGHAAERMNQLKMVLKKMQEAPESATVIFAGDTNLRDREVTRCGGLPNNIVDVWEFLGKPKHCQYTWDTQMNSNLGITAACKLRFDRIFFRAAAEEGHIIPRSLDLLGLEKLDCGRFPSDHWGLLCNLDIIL

[23] = system: Streptococcus sp. 'group A'; test: Streptococcus pyogenes SK(-)GAS viability under kanamycin – luminescence, BacTiterGlo, confirmation, counter-screen for streptokinase expression inhibitor project, dose response (AID 1900); type: functional, organism-based
[24] = cells; type: functional, cell-based
[25] = cells; type: functional, cell-based; remark: listed apart in the source
[26] = system: Streptococcus; test: GAS UMAA2166 growth inhibition – luminescence, BacTiterGlo, counter-screen for streptokinase expression inhibitor project, dose response (AID 1915); type: functional, organism-based;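 note: potency for reduction of bacterial viability or growth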

Sequence of Albumin (P02769 whole entry): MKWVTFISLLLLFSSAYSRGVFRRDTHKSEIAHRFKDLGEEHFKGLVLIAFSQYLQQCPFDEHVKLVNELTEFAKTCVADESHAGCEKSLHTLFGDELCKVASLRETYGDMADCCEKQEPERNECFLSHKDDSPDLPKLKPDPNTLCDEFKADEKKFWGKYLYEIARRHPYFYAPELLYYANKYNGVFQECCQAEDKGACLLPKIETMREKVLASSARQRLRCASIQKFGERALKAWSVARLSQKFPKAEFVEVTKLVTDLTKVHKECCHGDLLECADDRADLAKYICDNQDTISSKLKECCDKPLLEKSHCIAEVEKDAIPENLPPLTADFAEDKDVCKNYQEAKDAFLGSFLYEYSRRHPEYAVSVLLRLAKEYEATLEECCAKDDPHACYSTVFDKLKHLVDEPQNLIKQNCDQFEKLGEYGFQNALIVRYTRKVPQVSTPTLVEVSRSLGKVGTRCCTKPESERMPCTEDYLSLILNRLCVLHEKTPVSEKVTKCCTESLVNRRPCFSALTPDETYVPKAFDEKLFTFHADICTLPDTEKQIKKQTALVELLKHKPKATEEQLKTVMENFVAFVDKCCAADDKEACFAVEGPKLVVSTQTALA
Sequence of Mitogen-activated protein kinase 10 (P53779 whole entry): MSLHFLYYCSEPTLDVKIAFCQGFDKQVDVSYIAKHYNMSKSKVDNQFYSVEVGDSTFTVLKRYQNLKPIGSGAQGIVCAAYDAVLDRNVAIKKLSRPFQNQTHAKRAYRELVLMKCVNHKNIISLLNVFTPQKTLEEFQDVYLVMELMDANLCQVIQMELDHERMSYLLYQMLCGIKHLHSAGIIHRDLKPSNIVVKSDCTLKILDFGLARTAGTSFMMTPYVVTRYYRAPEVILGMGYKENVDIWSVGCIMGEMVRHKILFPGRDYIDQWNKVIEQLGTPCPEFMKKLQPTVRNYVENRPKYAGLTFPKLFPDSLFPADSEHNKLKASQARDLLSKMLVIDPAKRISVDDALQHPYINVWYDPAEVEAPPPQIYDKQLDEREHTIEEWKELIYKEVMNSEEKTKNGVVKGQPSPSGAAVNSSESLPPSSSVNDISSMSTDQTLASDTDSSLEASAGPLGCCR
Sequence of FAD-linked sulfhydryl oxidase ALR (P55789 whole entry): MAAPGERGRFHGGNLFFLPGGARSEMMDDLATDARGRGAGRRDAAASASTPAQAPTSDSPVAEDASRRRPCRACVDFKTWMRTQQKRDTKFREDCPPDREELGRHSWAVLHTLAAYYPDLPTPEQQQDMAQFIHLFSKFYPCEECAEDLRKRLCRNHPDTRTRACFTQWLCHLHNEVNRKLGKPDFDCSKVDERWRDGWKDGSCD

SMILES: COc1ccc(/C(C#N)=C2C=C/C(=N/O)C=C/2)cc1
- EC50 [1]: 16.7 µM (active)
- EC50 [2]: 14.5 µM (active)
- EC50 [3]: 17.6 µM (active)
- CC50 [4]: 13 µM (active)
- CC50 [5]: 13.3 µM (active)
- AC50 [6]: 5.88 µM (active)
- IC50 [7]: 44.8 µM (active)
- AC50 [8]: 4.64 µM (active)
- CC50 [9]: 89.3 µM (active)
- IC50 [10]: 93 µM (active)

SMILES: O=C1CC(c2ccc3c(c2)OCO3)Sc2nc3ccccc3n21 (stereo not drawn)
- AC50 [11]: > 52 µM (inactive)
- AC50 [12]: 13.1 µM (active)
- AC50 [13]: 11.2 µM (active)

SMILES: CCCCCCn1c(=O)c(C(=O)Nc2ncccc2O)c(O)c2ccccc21
- EC50 [14]: 10.7 µM (active)
- EC50 [15]: 22.7 µM (active)
- EC50 [16]: 9.12 µM (active)
- IC50 [17]: > 94.2 µM (inactive)

SMILES: O=S(=O)(c1ccc2c(c1)OCCO2)N1CCC(n2cnc3cc(F)ccc32)CC1
- IC50 [18]: 49.4 µM (not active)

SMILES: CCOc1ccc(NC(=O)CN2C(=O)C3CCCN3C2=O)cc1 (stereo not drawn)
- IC50 [19]: 3.23 µM (active)
- IC50 [18]: > 93.1 µM (not active)

SMILES: O=C(Cn1cnc([N+](=O)[O-])n1)c1ccc(O)c(O)c1
- AC50 [20]: 43.9 µM (active)

SMILES: CC(=O)N1CCn2c3c(c(=O)c4cc(C)ccc42)CCC31 (stereo not drawn)
- AC50 [21]: 7.99 µM (active)
- IC50 [22]: 43.5 µM (inactive)

SMILES: Cc1nc2ccccc2c(=O)n1/N=C/c1cc(Br)cc(Br)c1O
- EC50 [23]: 5.09 µM (active)
- EC50 [24]: > 350 µM (not active)
- EC50 [25]: > 350 µM (not active)
- EC50 [26]: 8.18 µM (active)
- IC50 [17]: > 94.1 µM (inactive)
